Results on 19 compounds are retold here after patent US20230076977A1, “UTROPHIN UPREGULATION COMPOUNDS FOR DUCHENNE MUSCULAR DYSTROPHY THERAPY” (THE TRUSTEES OF THE UNIVERSITY OF PENNSYLVANIA, priority 2020, published 2023).

Format in all cases: cell-based
For assay [1], the system named is utrophin protein in C2C12 cells. The experiment in a line: Utrophin western blot in C2C12 cells (endogenous protein expression). To be noted: for Utrophin protein levels, fold increase: 1 μM, 24 hours, normalized to tubulin, vs 0.1% DMSO control; for utrophin protein levels in a separate assay (data not shown): hits with H2LPS equal to 0. Here is the method: The 10 highest scoring hits were selected from this subset for performing in vitro validation. C2C12 cells were treated with 1 μM concentrations of the selected hits for 24 hours, followed by western blot evaluation of utrophin levels as an orthogonal assay for endogenous protein expression. […] Panobinostat, an FDA-approved non-selective HDAC inhibitor for cancer treatment, increased utrophin levels by 1.9-fold. […] AR-42 (S2244), another HDAC inhibitor with proven preclinical efficacy in contrasting cancer-induced cachexia, increased utrophin by 2.3-fold and had the second highest H2LPS. Consistent with the calculated HPS, the highest scoring hit, TSA (S1045), had also the highest magnitude of protein upregulation (3.9-fold) followed by PCI-24781 (S1090; 3.7-fold). Importantly, high H2LPS was generally correlated with confirmation in WB assays (FIG. 2E).
Total RNA was extracted from TA muscle samples with RNAeasy kit (Qiagen, USA) and reverse transcribed with random hexamers. qPCR was performed using Taqman probes for Utrophin (Assay ID Mm01168846_ml) and β-actin. Muscle tissue samples were lysed with TNEC buffer (50 mM Tris-HCl, pH 8.0; 150 mMNaCl; 1% NP40; 2 mM EDTA) buffer containing complete protease inhibitor cocktail (Roche, Basel, Switzerland). C2C12 cells were treated for 24 h with 1 μM concentrations of compounds from a fresh batch (3 wells for each compound), and cell samples were lysed with RIPA buffer with protease inhibitor cocktail. The experiment was repeated three independent times. 50-75 μg of total proteins from muscle tissues, or 4 μg of cell protein extracts, were resolved on a 3-8% Tris-Acetate gradient gel (NuPage; Invitrogen), transferred to PDVF or nitrocellulose membranes and mouse monoclonal anti-utrophin antibody MANCHO3 clone 8A4 (developed by Glenn E. Morris and obtained from the Developmental Studies Hybridoma Bank, Iowa) or a custom-made anti-UtrophinA rabbit polyclonal antibody (muscle tissue samples) generated and described previously by Chakkalakal et al., Nucleic Acids Res. 36, 826-838 (2008), which is incorporated herein by reference in its entirety.
TSA is a broad-spectrum HDAC inhibitor. […] To further validate in vitro the dose-dependent capacity of TSA to upregulate utrophin protein, C2C12 cells were treated for 24 hours with increasing concentrations of TSA (from 1 nM to 10 μM) (FIG. 3B). Consistent with the single-dose western blot validation experiments, utrophin protein levels were increased 4.3 times by 1 μM TSA. […] Some cytotoxicity was evident for TSA concentrations higher than 1 μM.

Assay [2] concerns 5′- and 3′-UTRs of human utrophin. Briefly: Screening assay: C2C12 stable reporter line, CMV-driven luciferase flanked by utrophin 5′ and 3′ UTRs. The conditions noted are these: for Upper-lower limits scoren: difference between upper and lower boundaries of the fitted dose-response screening curve; for Fold diff: fold difference between the EC50s of screening and counterscreening. Here is the method: (§1) The construct for the HTS assay was generated by cloning the 5′- and 3′-UTRs of human utrophin into pGL4:50-hygro (Promega, Madison, Wis.) at the 5′ and 3′ of the luciferase coding sequence and has been described previously by Moorwood. […] For the counterscreening assay, the pGL4:50-hygro plasmid was used alone. Low passage C2C12 cells obtained from ATCC were transfected with either constructs, stably selected with 500 μg/mL hygromycin and subcloned using two rounds of serial dilutions to isolate single cell-derived colonies in a 96 wells plate format. […] The selected clones were cultured in presence of 100 μg/mL hygromycin B and were transferred to the HTS Facility at the University of Pennsylvania for implementation into a 384-wells format suitable for HTS.
(§2) The construct for generating the screening C2C12 cell line carrying the 5′ and 3′UTR of the human utrophin gene is described by Moorwood. […] Some compounds could increase light emission independently from the 5′ and 3′UTR regions, i.e., by activating the CMV promoter or increasing overall mRNA synthesis. Therefore, in order to distinguish such compounds, a counterscreening cell line stably expressing only the CMV-driven luciferase gene was generated (FIG. 1A). To determine optimal conditions for the implementation in a 384-wells high-throughput format, evaluated were DMSO tolerance, optimal cell density and incubation time (FIG. 5A-5C).
(§3) A first criterion for evaluating the performance of the selected hits was whether their activity was dose-dependent. After performing a dose-response analysis (5 nM to 10 μM) of each hit in the screening cell line, a clustering approach was applied (complete linkage with Euclidean distance measurement) to highlight similarities between compounds profiles. […] By modeling each dose-response trace with a 4-parameter logistic model applied to the Z— score values (FIG. 2B), the EC50 of each molecule was calculated.
(§4) Cells were allowed to attach overnight at 37° C., 5% CO2 in a humidified chamber. […] Compounds were added to a final concentration of 1 μM and 100 nM in 0.2% DMSO. Columns 1 and 23 were treated with 0.2% DMSO (negative control). Columns 2 and 24 were treated with 100 nM Panobinostat (positive control). Cells were incubated for 24 hours at 37° C., 5% CO2. […] Luminescence was measured on an EnVisionXcite Multilabel Plate Reader (PerkinElmer), using ultrasensitive luminescence measurement technology.
Background: A counterscreen serves to expose hits that act by an unwanted route or on another target.

Assay [3] concerns CMV-driven luciferase gene. The experiment in a line: Counterscreening assay: C2C12 line stably expressing only the CMV-driven luciferase gene. The conditions noted are these: for luciferase activity in the counterscreening assay: dose-response 5 nM to 10 μM, FIG. 6. Here is the method:
as §1, §2, §3, §4

[4] abbreviates: C2C12, 4-parameter logistic fit of Z-scores, 24 h, no unit in table (0.013 = 13 nM), read-out: EC50 screen.
The mark [5] stands for this setting: C2C12, read-out: EC50 score (1 to 4).
Where [6] appears, read: 4-parameter logistic fit of Z-scores, 24 h, no unit in table (0.013 = 13 nM), read-out: EC50 screen.

Read-outs that look alike come from different tables or passages of the source. Starred links: 1 amine or outer side, 2 acyl side, 3 side chain; linkers in the order of their positions; H or OH if unused. Positions of bridges follow the written chain, without caps; N, C: chain ends. Non-standard residues stand in square brackets, D forms with d. Residues, ends and D or L forms follow the SMILES beside them. Chains are numbered I, II in the order given. Hexamethylenediamine = C(CCCN[*:2])CCN[*:1]; Dip = N[C@H](C(=O)O)C(c1ccccc1)c1ccccc1; Chg = N[C@H](C(=O)O)C1CCCCC1; NMeA = CN[C@@H](C)C(=O)O

One may read the EC50 as the midpoint of the concentration-response curve. In the case of `CC(C)[C@H](C(=O)Nc1ccc(C(=O)NO)cc1)c1ccccc1` [AR-42], in assay [1], the “Utrophin protein levels, fold increase” value is listed as 2.3 fold. The figures for the EC50 in assay [2] (setting [4]) and in assay [2] (setting [5]) were 0.369 µM and 0.1 to 1 µM, respectively. Moreover, the Upper-lower limits scoren in assay [2] amounted to 59.94. This compound showed a Fold diff in assay [2] of 14.72.
Regarding `CC(=O)O/N=C1/C(=C2/C(=O)Nc3cc(Br)ccc32)Nc2ccccc21` [BIO-acetoxime], the EC50 in assay [2] (setting [6]) amounted to 0.33 µM. Moreover, in assay [2], the Upper-lower limits scoren is on record as 13.04 and the Fold diff is 0.65.
With `O=C1Nc2cc(Br)ccc2/C1=C1/Nc2ccccc2/C1=N\O` [BIO], the Upper-lower limits scoren in assay [2] is given as 12.
For `CN[C@@H](C)C(=O)N[C@H](C(=O)N1CCC[C@H]1C(=O)N[C@H](C(=O)NCCCCCCNC(=O)[C@@H](NC(=O)[C@@H]1CCCN1C(=O)[C@@H](NC(=O)[C@H](C)NC)C1CCCCC1)C(c1ccccc1)c1ccccc1)C(c1ccccc1)c1ccccc1)C1CCCCC1` [BV-6] (I: H-[NMeA][Chg]P[Dip] / II: H-[NMeA][Chg]P[Dip]; linker I:C-II:C via Hexamethylenediamine), in assay [2] (setting [6]), the EC50 was determined as 0.099 µM. In assay [2], the Upper-lower limits scoren is reported as 7.00 and the Fold diff result was “High”.
Turning to `O=C(/C=C/c1cccc(S(=O)(=O)Nc2ccccc2)c1)NO` [Belinostat], the half-maximal effective concentration (EC50) in assay [2] (setting [4]) stood at 0.342 µM. The EC50 in assay [2] (setting [5]) was 0.1 to 1 µM. In assay [2], the Upper-lower limits scoren turned out to be 43.41 and the Fold diff entry was “High”.
For `C#Cc1cccc(Nc2ncnc3cc(OC)c(OCCCCCCC(=O)NO)cc23)c1` [CUDC-101], the EC50 in assay [2] (setting [4]) stood at 1.99 µM. Also, the EC50 in assay [2] (setting [5]) was more than 1 µM. In assay [2], the Upper-lower limits scoren is 34.34 and the Fold diff result is listed as “High”.
For the compound `COc1ccc(-c2nc(N3CCOCC3)c3sc(CN(C)c4ncc(C(=O)NO)cn4)cc3n2)cn1` [CUDC-907], in assay [2] (setting [5]), the EC50 is less than 0.05 µM. Further, the “luciferase activity in the counterscreening assay” value in assay [3] is recorded as “significant luciferase activity”.
For the compound `CCN(CC)Cc1ccc2cc(COC(=O)Nc3ccc(C(=O)NO)cc3)ccc2c1` [Givinostat], in assay [1], the “Utrophin protein levels, fold increase” value came out at 2.2 fold. The EC50 in assay [2] (setting [4]) was determined as 0.269 µM. In assay [2] (setting [5]), the EC50 fell in the range of 0.1 to 1 µM. In assay [2], the Upper-lower limits scoren turned out to be 46.59 and the Fold diff is 18.69.
In the case of `O=C1Cc2c([nH]c3ccc(Br)cc23)-c2ccccc2N1` [Kenpaullone], the EC50 in assay [2] (setting [4]) was determined as 0.034 µM. The EC50 in assay [2] (setting [5]) was less than 0.05 µM. In assay [2], this compound gave an Upper-lower limits scoren of 12.92 and a Fold diff of 6.97.
With `O=C(/C=C/c1ccc(CN(CCO)CCc2c[nH]c3ccccc23)cc1)NO` [LAQ824, Dacinostat], in assay [1], the “utrophin protein levels in a separate assay (data not shown)” value (“utrophin protein levels … (data not shown)” for short) is given as “failed to increase utrophin protein levels”.
As to `Cc1cc(C)cc(C(=O)NOCCCCCC(=O)NO)c1` [LMK-235], the figures for the EC50 in assay [2] (setting [4]) and in assay [2] (setting [5]) were 0.683 µM and 0.1 to 1 µM, respectively. In assay [2], this compound showed an Upper-lower limits scoren of 43.40. Also, the Fold diff result in assay [2] is “High”.
Regarding `CN(C)c1ccc(C(=O)NCCCCCCC(=O)NO)cc1` [M344], the EC50 in assay [2] (setting [6]) stood at 3.22 µM. In assay [2], this compound registered an Upper-lower limits scoren of 74.15 and a Fold diff of 2.54.
Regarding `Cc1cc(O)c(-c2ccc([C@@H](C)CN)cc2)c2c1[nH]c(=O)c1sccc12.Cl` [OTS514 hydrochloride], in assay [1], the “utrophin protein levels … (data not shown)” value was “failed to increase utrophin protein levels”.
Consider `CCCCc1nc2cc(/C=C/C(=O)NO)ccc2n1CCN(CC)CC` [Pracinostat], for which, in assay [2] (setting [4]), the EC50 was found to be 0.558 µM. Further, the EC50 in assay [2] (setting [5]) lay within 0.1 to 1 µM. Also, in assay [2], the Upper-lower limits scoren was 56.37 and the Fold diff was found to be 59.25.
Turning to `Cn1cc(CNCC2CCN(c3ncc(C(=O)NO)cn3)CC2)c2ccccc21` [Quisinostat], the “utrophin protein levels … (data not shown)” value in assay [1] is listed as “failed to increase utrophin protein levels”.
Turning to `O=C(CCCCCN1C(=O)c2cccc3cccc(c23)C1=O)NO` [Scriptaid], the results for the EC50 in assay [2] (setting [4]) and in assay [2] (setting [5]) were 2.44 µM and more than 1 µM, respectively. Further, the Upper-lower limits scoren in assay [2] stood at 62.01. For the same compound, the Fold diff result in assay [2] is listed as “High”.
As for `CC(C)Oc1ccc2c(=O)c(-c3ccccc3)coc2c1` [ipriflavone], the EC50 in assay [2] (setting [5]) was less than 0.05 µM.
Take Abexinostat [PCI-24781]: the “Utrophin protein levels, fold increase” value in assay [1] is 3.7 fold. Moreover, the EC50 in assay [2] (setting [6]) came to 0.138 µM. In assay [2], this compound had an Upper-lower limits scoren of 44.18 and a Fold diff of 33.72.
As to Panobinostat, the “Utrophin protein levels, fold increase” value in assay [1] is recorded as 1.9 fold. In addition, the concentration for a half-maximal effect (EC50) in assay [2] (setting [6]) worked out at 0.013 µM. Moreover, the “increase of signal activity over basal signal, primary screening” value in assay [2] (FIG. 8, Panobinostat-treated vs untreated stable C2C12 cells) was 4-6 fold. The “signal (S), primary screening” value in assay [2] (FIG. 8, basal about 20,000 RLUs) is recorded as “about 100,000 RLUs”. In assay [2], this compound showed an Upper-lower limits scoren of 22.06 and a Fold diff of 9.21. Moreover, the “activity in library screen (threshold 22.07% NPAc)” value in assay [2] (screened at 0.1 μM and 1 μM, 24 h) was “active at both concentrations”. Also, the “increase over the basal signal, counterscreening” value in assay [3] (FIG. 8, Panobinostat-treated vs untreated) was determined as 100 fold. Further, the “signal (S), counterscreening” value in assay [3] (FIG. 8, basal about 400 RLUs) was 25-40,000 RLUs. Besides, the “luciferase activity in the counterscreening assay” value in assay [3] is recorded as “significant luciferase activity”.
